In ChEMBL document CHEMBL1201862, “PubChem BioAssay data set” (2004):
Calls of active or inactive are those of the source.

Key:
[1] = viability of uninfected HEp-2 cells – cell-based, HTS, cytotoxicity control for RSV inhibitor project, dose response (AID 2410); assay type: functional; settings: human respiratory syncytial virus
[2] = biological target: T1, Corticotropin-releasing factor receptor 2/Corticotropin-releasing factor-binding protein (Homo sapiens, UniProt P24387+Q13324); assay: activators of CRF receptor 2 with binding protein – uHTS hits, confirmation (AID 602473); assay type: functional; settings: read-out: EC50_Mean
T1 sequence (Q13324 whole entry): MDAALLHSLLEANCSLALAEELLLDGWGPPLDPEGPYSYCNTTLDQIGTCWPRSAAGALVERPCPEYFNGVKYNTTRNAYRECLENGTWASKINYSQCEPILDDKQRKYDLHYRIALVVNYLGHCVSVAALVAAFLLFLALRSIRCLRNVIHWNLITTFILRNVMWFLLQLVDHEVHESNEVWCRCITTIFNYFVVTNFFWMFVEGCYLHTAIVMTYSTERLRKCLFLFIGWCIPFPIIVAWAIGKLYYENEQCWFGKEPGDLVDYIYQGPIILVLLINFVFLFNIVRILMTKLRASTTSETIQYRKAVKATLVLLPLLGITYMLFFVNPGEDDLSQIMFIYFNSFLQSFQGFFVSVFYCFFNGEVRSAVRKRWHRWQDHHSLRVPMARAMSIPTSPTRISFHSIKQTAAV
T1 sequence (P24387 whole entry): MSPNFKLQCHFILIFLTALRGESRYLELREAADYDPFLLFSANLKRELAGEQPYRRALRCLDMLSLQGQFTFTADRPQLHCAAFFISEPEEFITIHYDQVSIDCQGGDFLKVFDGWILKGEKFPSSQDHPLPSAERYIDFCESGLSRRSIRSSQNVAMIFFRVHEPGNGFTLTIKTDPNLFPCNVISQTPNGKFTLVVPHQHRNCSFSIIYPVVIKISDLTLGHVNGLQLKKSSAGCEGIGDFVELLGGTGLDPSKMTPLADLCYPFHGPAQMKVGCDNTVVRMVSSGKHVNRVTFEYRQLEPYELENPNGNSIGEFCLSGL

[3] = biological target: T1, Corticotropin-releasing factor receptor 2/Corticotropin-releasing factor-binding protein; assay: Dose Response confirmation of uHTS hits for small molecule antagonists of the CRF-binding protein and CRF-R2 receptor complex.; assay type: functional; settings: read-out: IC50_Mean
Cytochrome P450 1A2 = biological target: T2, Cytochrome P450 1A2 (Homo sapiens, UniProt P05177);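 note: PubChem cytochrome P450 panel assay, CYP1A2 panel member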
T2 sequence (P05177 whole entry): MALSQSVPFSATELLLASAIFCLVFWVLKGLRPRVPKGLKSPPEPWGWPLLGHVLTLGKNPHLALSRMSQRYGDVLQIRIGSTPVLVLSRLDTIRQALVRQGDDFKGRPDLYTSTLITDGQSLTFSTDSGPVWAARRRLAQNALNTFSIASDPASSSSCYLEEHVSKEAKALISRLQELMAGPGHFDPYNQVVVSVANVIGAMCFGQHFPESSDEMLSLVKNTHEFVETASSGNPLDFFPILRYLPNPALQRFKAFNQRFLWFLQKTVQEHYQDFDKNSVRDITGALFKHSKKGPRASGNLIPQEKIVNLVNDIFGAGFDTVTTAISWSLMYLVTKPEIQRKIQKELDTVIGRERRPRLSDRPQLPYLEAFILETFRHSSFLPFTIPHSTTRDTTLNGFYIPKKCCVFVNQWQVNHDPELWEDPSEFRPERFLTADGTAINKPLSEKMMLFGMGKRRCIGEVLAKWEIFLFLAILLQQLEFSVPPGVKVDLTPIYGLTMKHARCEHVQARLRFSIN

Cytochrome P450 2C19 = Cytochrome P450 2C19 (Homo sapiens, UniProt P33261); assay: Cytochrome panel assay with activity outcomes. Panel member name: p450-cyp2c19 Compounds with AC50 equal or less than 10 uM are considered active; assay type: functional; settings: read-out: AC50
Chain of Cytochrome P450 2C19 (P33261 whole entry): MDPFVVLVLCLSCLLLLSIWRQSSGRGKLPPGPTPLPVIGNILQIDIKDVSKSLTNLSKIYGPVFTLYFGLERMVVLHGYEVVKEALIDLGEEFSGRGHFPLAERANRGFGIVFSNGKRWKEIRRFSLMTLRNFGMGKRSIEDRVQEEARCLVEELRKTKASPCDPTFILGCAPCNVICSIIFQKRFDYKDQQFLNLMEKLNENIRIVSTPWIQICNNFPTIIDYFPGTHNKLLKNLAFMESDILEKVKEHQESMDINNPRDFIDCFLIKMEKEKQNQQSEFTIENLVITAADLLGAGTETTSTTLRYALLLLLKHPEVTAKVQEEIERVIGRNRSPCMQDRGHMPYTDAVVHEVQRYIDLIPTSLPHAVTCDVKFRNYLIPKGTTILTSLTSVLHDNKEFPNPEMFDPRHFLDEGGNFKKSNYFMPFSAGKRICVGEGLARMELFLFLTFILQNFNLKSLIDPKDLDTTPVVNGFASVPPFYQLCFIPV

Cytochrome P450 2C9 = Cytochrome P450 2C9 (Homo sapiens, UniProt P11712)
Chain of Cytochrome P450 2C9 (P11712 whole entry): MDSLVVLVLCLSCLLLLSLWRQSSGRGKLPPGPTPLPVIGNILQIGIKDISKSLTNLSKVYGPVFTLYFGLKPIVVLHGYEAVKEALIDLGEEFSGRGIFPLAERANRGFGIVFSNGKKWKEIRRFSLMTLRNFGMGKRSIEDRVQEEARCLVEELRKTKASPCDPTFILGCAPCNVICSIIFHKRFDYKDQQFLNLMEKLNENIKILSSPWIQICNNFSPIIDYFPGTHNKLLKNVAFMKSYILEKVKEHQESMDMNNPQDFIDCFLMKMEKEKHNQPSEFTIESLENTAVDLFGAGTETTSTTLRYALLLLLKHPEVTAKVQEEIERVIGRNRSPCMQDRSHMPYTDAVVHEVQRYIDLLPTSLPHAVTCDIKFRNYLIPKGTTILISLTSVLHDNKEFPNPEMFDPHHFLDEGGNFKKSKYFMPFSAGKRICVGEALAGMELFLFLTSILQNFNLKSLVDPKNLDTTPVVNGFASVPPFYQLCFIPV

Cytochrome P450 3A4 = Cytochrome P450 3A4 (Homo sapiens, UniProt P08684);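 note: CYP3A4 tested as one member of a cytochrome P450 panel screen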
Chain of Cytochrome P450 3A4 (P08684 whole entry): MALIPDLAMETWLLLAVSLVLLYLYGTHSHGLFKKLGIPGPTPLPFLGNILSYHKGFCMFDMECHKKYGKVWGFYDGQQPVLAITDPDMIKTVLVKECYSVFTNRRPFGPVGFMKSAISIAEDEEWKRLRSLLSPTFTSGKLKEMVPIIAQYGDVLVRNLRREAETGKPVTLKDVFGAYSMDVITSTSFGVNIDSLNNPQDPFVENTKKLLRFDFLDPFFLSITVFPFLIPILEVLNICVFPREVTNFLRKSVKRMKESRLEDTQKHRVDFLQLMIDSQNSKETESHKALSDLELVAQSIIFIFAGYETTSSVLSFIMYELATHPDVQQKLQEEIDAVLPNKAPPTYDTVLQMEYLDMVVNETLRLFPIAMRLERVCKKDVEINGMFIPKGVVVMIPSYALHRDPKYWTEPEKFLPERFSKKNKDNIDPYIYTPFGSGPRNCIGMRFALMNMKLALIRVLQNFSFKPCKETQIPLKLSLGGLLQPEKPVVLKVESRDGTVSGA

Paired box protein Pax-8 = Paired box protein Pax-8 (Homo sapiens, UniProt Q06710); assay: PAX8 transcriptional activity inhibition in RMG-I – RMG-I cells, luciferase, cherry-pick, dose response (AID 687027); assay type: functional, cell-based;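 note: luciferase reporter driven by Pax8 target thyroperoxidase promoter measured by SteadyGlo luminescence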
Chain of Paired box protein Pax-8 (Q06710 whole entry): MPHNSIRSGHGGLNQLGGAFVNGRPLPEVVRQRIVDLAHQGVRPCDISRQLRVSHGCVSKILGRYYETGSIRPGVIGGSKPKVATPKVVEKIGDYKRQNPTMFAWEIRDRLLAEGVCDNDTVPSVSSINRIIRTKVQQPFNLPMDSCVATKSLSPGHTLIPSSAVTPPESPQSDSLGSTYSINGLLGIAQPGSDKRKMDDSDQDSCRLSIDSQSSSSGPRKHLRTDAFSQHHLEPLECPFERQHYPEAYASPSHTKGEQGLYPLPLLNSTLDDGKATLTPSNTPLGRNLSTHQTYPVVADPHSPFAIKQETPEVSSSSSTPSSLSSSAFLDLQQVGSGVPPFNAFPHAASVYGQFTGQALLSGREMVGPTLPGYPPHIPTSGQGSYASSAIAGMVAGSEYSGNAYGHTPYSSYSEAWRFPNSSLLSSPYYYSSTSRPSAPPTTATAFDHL

H4 = assay: Luminescence Cell-Based Dose Response HTS to Identify Activators of 5'UTR Stem-Loop Driven Prion Protein mRNA Translation in H4 Neuroglioblastoma Cells. [Related pubchem assays: 1829 (Project Summary), 1814 (Primary HTS)]; assay type: functional; settings: Homo sapiens
[4] = test system: Streptococcus sp. 'group A'; assay: Streptococcus pyogenes SK(-)GAS viability under kanamycin – luminescence, BacTiterGlo, confirmation, counter-screen for streptokinase expression inhibitor project, dose response (AID 1900); assay type: functional, organism-based
Streptococcus = assay: GAS UMAA2166 growth inhibition – luminescence, BacTiterGlo, counter-screen for streptokinase expression inhibitor project, dose response (AID 1915); assay type: functional, organism-based;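 note: potency for reduction of bacterial viability or growth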
Streptokinase A = biological target: T3, Streptokinase A (Streptococcus pyogenes serotype M1, UniProt P10520); assay: viability-normalized secreted streptokinase activity reduction – plasminogen activation absorbance, OD405, dose response (AID 1914); assay type: functional, Streptococcus pyogenes M1 GAS;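 note: secreted streptokinase activity via plasminogen activation per viability signal from cell pellet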
T3 sequence (P10520 whole entry): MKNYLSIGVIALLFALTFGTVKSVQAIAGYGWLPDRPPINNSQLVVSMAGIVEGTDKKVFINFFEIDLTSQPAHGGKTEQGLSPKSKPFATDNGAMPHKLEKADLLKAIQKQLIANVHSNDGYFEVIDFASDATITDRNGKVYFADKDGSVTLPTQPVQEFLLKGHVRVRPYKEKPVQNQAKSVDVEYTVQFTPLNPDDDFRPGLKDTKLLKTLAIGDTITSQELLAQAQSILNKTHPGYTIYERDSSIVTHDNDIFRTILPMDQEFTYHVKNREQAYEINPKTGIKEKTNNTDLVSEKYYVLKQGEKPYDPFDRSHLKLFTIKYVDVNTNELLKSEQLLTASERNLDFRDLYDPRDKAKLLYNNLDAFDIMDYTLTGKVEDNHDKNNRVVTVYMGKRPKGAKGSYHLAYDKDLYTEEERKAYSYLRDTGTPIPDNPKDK

SMILES: CC1CN(S(=O)(=O)c2cccc(C(=O)Nc3cc(Cl)ccc3N3CCOCC3)c2)CC(C)O1 (stereo not given)
- CC50 [1]: 43 µM (active)

SMILES: Cc1ccc(NC(=O)C2CCCN2C(=O)c2cccs2)cc1C (stereo not given)
- EC50 [2]: > 53 µM (inactive)
- IC50 [3]: > 47.1 µM (inactive)

SMILES: Cc1ccc(NC2c3ncccc3C(=O)N2Cc2ccc(F)cc2)cc1 (stereo not given)
- CC50 [1]: > 50 µM (active)

SMILES: CCC/C=C(\CCC)C(NS(=O)(=O)c1cccc2cccnc12)c1ccc(-c2ccccc2)cc1 (stereo not given)
- AC50 (Cytochrome P450 1A2): 0.794 µM (inconclusive)
- AC50 (Cytochrome P450 2C19): 2.51 µM (inconclusive)

SMILES: OC(COc1ccc(Cl)c2ccccc12)CN1CCN(c2ccccn2)CC1 (stereo not given)
- CC50 [1]: 18.3 µM (active)

SMILES: Cc1cc(Br)cc2c1N(C)C(=O)C2(c1ccc(O)cc1)c1ccc(O)cc1
- CC50 [1]: 13.8 µM (active)

SMILES: Cc1cc([N+](=O)[O-])ccc1NCc1ccccc1[N+](=O)[O-]
- EC50 [2]: > 53 µM (inactive)
- IC50 [3]: > 47.1 µM (inactive)

SMILES: CN(C)c1ncc2nc(-c3cc(F)cc(F)c3)c(=O)n(-c3ccccc3)c2n1
- AC50 (Cytochrome P450 1A2): 0.316 µM (inconclusive)

SMILES: CCC(c1nnc(SCC(=O)Nc2c(F)cccc2F)n1Cc1ccccc1)N(C)C (stereo not given)
- EC50 [2]: > 53 µM (inactive)
- IC50 [3]: > 47.1 µM (inactive)

SMILES: Cc1ccc(Cn2c(C(C)Nc3nc(-c4ccc(F)cc4)cs3)nc3cc(Cl)c(Cl)cc32)cc1 (stereo not given)
- CC50 [1]: 49.3 µM (active)

SMILES: CCCC[C@@H]1C[C@H]1C(NC(=O)c1ccccc1)c1ccc(-c2ccccc2)cc1 (stereo not given in full)
- AC50 (Cytochrome P450 2C9): 2 µM (inconclusive)
- AC50 (Cytochrome P450 1A2): 0.501 µM (inconclusive)
- AC50 (Cytochrome P450 3A4): 7.94 µM (inconclusive)

SMILES: O=c1c2ccccc2c(-c2ccccc2)nn1Cc1ccc(Cl)cc1
- AC50 (Cytochrome P450 1A2): 0.0708 µM (inconclusive)

SMILES: COc1cc(C=O)ccc1Oc1cnccn1
- EC50 [2]: > 53 µM (inactive)
- IC50 [3]: > 47.1 µM (inactive)

SMILES: CC(=O)Nc1ccc(OCC(=O)N2CCC(Cc3ccccc3)CC2)cc1
- CC50 [1]: 21.6 µM (active)

SMILES: O=C(Nc1ccc(F)cc1F)c1cccnc1Oc1cccc(C(F)(F)F)c1
- AC50 (Cytochrome P450 1A2): 0.794 µM (inconclusive)

SMILES: CCCc1cc2c(n1Cc1cccc(Cl)c1)C(C)C1CN(C(=O)c3ccccc3)C(C)(C(=O)OC)C21 (stereo not given)
- AC50 (Cytochrome P450 1A2): 31.6 µM (inconclusive)

SMILES: CCCCNC(=O)C(Sc1ccccc1)c1ccccc1 (stereo not given)
- AC50 (Paired box protein Pax-8): 65.4 µM (active)

SMILES: COc1ccccc1NC(=O)Nc1ccc(Cc2ccncc2)cc1
- CC50 [1]: 19.1 µM (active)

SMILES: COc1ccc(CNc2cc([N+](=O)[O-])ccc2OC)cc1
- EC50 [2]: > 53 µM (inactive)
- IC50 [3]: 11 µM (active)

SMILES: COc1ccc2nc(NC(C)=O)sc2c1
- AC50 (Cytochrome P450 2C19): 39.8 µM (inconclusive)
- AC50 (Cytochrome P450 3A4): 28.2 µM (inconclusive)

SMILES: Cc1cc(NC(=O)c2cc(C(C)C)on2)no1
- AC50 (Cytochrome P450 1A2): 20 µM (inconclusive)

SMILES: CC[C@@H](c1ccccc1)n1c(=O)n2n(c1=O)[C@H]1[C@H](O)[C@H]3O[C@@H]3/C(=N/OCc3ccccc3)[C@@H]1CC2
- AC50 (Cytochrome P450 3A4): 5.01 µM (inconclusive)

SMILES: Cn1cc(-c2nc3cnc(Oc4ccccc4)nc3n(C3CC3)c2=O)c2ccccc21
- AC50 (Cytochrome P450 1A2): 5.01 µM (inconclusive)
- AC50 (Cytochrome P450 3A4): 25.1 µM (inconclusive)

SMILES: Cc1nc2cnc(Nc3ccccc3)nc2n(CCc2ccccc2)c1=O
- AC50 (Cytochrome P450 1A2): 2.51 µM (inconclusive)
- AC50 (Cytochrome P450 3A4): 10 µM (inconclusive)

SMILES: COC(=O)N1CCC2(CCN(C(=O)NC(C)C)CC2)CC1
- AC50 (Cytochrome P450 2C9): 12.6 µM (inconclusive)
- AC50 (Cytochrome P450 1A2): 20 µM (inconclusive)

SMILES: COCCN1C(=O)C(O)=C(C(=O)c2cccc(OC)c2)C1c1ccc(C)o1 (stereo not given)
- AC50 (Cytochrome P450 2C9): 31.6 µM (inconclusive)
- AC50 (Cytochrome P450 1A2): 12.6 µM (inconclusive)

SMILES: O=S(=O)(c1ccccc1)N1CCC2(CCN(c3ccccc3)CC2)CC1
- AC50 (Cytochrome P450 2C9): 39.8 µM (inconclusive)
- AC50 (Cytochrome P450 2C19): 10 µM (inconclusive)
- AC50 (Cytochrome P450 3A4): 2.51 µM (inconclusive)

SMILES: COc1cc(NC(S)=NCc2ccco2)cc(OC)c1
- EC50 [2]: > 53 µM (inactive)
- IC50 [3]: > 47.1 µM (inactive)

SMILES: CCC(=O)Nc1c2c(nc3c1CCC3)CCCC2
- AC50 (Cytochrome P450 1A2): 15.8 µM (inconclusive)

SMILES: CC(NC(=O)Nc1ccc(Cl)cc1)c1ccc2c(c1)OCO2 (stereo not given)
- CC50 [1]: 39.5 µM (active)

SMILES: Cc1ccc(CNC(=O)/C=C/c2cccs2)cc1
- EC50 (H4): 1.28 µM (active)

SMILES: CCn1c2ccccc2c2cc(NC(=O)C(C)Oc3ccc(OC)cc3)ccc21 (stereo not given)
- AC50 (Cytochrome P450 2C9): 7.94 µM (inconclusive)
- CC50 [1]: > 50 µM (active)

SMILES: CC1CCc2[nH]c3ccc(C(=O)N(C)CC(=O)Nc4cccc(F)c4)cc3c2C1 (stereo not given)
- EC50 [2]: > 53 µM (inactive)
- IC50 [3]: > 47.1 µM (inactive)

SMILES: Cc1ccc2[nH]c(/C(C#N)=C\c3cc(C)n(-c4cccc([N+](=O)[O-])c4)c3C)nc2c1
- CC50 [1]: 16.6 µM (active)

SMILES: COc1ccccc1C(=O)Nc1nnc(SCC(=O)NCC2CCCO2)s1 (stereo not given)
- EC50 [4]: > 150 µM (not active)
- EC50 (Streptococcus): > 150 µM (not active)
- EC50 (H4): > 120 µM (not active)
- EC50 (Streptokinase A): > 150 µM (not active)

SMILES: COc1ccc(/C=C/C(=O)N(C)CC(=O)Nc2cccc(F)c2)cc1S(=O)(=O)N1CCCCC1
- EC50 [2]: > 53 µM (inactive)
- IC50 [3]: > 47.1 µM (inactive)

SMILES: CCCCCC(=O)N1CC2(CC(c3cccc(NC(=O)CC)c3)=NO2)C[C@H]1C(N)=O (stereo not given in full)
- EC50 [2]: > 53 µM (inactive)
- IC50 [3]: > 47.1 µM (inactive)

SMILES: Cc1cn(CC(=O)N2CCN(c3ccccn3)CC2)c(=O)[nH]c1=O
- EC50 [2]: > 53 µM (inactive)
- IC50 [3]: > 47.1 µM (inactive)

SMILES: COc1cccc(-c2ccc3c(c2)[C@@H]2[C@@H](CCN2S(=O)(=O)c2ccccc2C)[C@H](CO)N3C)c1
- AC50 (Paired box protein Pax-8): 10.4 µM (active)

SMILES: CC(/C=C/c1ccccc1)=N\NC(=O)C1CC1(C)c1ccccc1 (stereo not given)
- CC50 [1]: 32 µM (active)

SMILES: CCOC(=O)n1ccn(C)c1=S [CARBIMAZOLE]
- AC50 (Cytochrome P450 1A2): 12.6 µM (inconclusive)
